Among the data in ChEMBL document CHEMBL2424549, “Design, synthesis and biological evaluation of 4-(1-(4(sulphanilamide)phenyl)-3-(methyl)-1H-pyrazol-5-yl)dine urea and N-acyl derivatives as a soluble epoxide hydrolase inhibitors” (Med Chem Res, 2013) are inhibition and IC50 values, retold here.

For orientation: inhibition means the relative decrease from the control value, in per cent. The IC50 is the concentration that inhibits the measured activity by half.

Experiment [1] addresses T1, Bifunctional epoxide hydrolase 2 (Homo sapiens) (UniProt P34913).
T1 sequence (whole entry): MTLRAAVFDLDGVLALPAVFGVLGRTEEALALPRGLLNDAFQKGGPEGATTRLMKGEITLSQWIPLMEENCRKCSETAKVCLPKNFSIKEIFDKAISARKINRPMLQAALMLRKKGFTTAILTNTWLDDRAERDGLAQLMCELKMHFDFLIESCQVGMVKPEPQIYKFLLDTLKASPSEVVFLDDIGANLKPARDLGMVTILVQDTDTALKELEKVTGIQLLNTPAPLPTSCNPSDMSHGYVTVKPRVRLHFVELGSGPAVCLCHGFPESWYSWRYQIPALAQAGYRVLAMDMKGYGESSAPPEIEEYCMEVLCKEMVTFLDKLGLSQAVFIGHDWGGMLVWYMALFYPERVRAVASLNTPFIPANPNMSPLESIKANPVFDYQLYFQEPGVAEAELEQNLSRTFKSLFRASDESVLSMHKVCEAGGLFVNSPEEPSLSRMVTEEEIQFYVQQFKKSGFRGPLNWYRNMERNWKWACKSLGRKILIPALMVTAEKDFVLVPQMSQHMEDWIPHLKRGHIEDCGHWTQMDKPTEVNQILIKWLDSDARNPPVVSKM
The experiment in a line: Inhibition of human recombinant soluble epoxide hydrolase using (3-phenyl-oxiranyl)-acetic acid cyano-(6-methoxy-naphtalen-2-yl)-methyl ester as substrate at 100 uM incubated for 15 mins prior to substrate addition by fluorescence assay.

For experiment [2], the target named is T2, Bifunctional epoxide hydrolase 2 (Homo sapiens, UniProt P34913).
T2 sequence (P34913 whole entry): T1 sequence (whole entry)
The experiment in a line: Inhibition of human recombinant soluble epoxide hydrolase using (3-phenyl-oxiranyl)-acetic acid cyano-(6-methoxy-naphtalen-2-yl)-methyl ester as substrate incubated for 15 mins prior to substrate addition by fluorescence assay.

Take `CCCC(=O)N1CCC(c2cc(C)nn2-c2ccc(S(C)(=O)=O)cc2)CC1`: the inhibition in experiment [1] amounted to 54%. Still for that read-out and setting: the result for `CCNC(=O)N1CCC(c2cc(C)nn2-c2ccc(S(C)(=O)=O)cc2)CC1` reads 54%; that for `Cc1cc(C2CCN(C(=O)NCCc3ccccc3)CC2)n(-c2ccc(S(C)(=O)=O)cc2)n1`, 54%. `Cc1cc(C2CCN(C(=O)c3ccc([N+](=O)[O-])cc3)CC2)n(-c2ccc(S(C)(=O)=O)cc2)n1`: the inhibition in experiment [1] was 54%. `Cc1cc(C2CCN(C(=O)NCc3ccccc3)CC2)n(-c2ccc(S(C)(=O)=O)cc2)n1`: in experiment [1], the inhibition is 94.2%.

On to `CCNC(=O)N1CCC(c2cc(C)nn2-c2ccc(S(N)(=O)=O)cc2)CC1`, for which, in experiment [1], the inhibition was 23.3%. With `Cc1cc(C2CCN(C(=O)NC(C)C)CC2)n(-c2ccc(S(C)(=O)=O)cc2)n1`, in experiment [2], the half-maximal inhibitory concentration (IC50) was 13.6 µM. Also, the inhibition in experiment [1] was 45.4%. In the case of `Cc1cc(C2CCN(C(=O)NC(C)C)CC2)n(-c2ccc(S(N)(=O)=O)cc2)n1`, in experiment [2], the IC50 came out at 22.3 µM. Also, the inhibition in experiment [1] was found to be 105%. As for `CCCNC(=O)N1CCC(c2cc(C)nn2-c2ccc(S(C)(=O)=O)cc2)CC1`, the inhibition in experiment [1] is 54%. In the case of `Cc1ccc(NC(=O)N2CCC(c3cc(C)nn3-c3ccc(S(C)(=O)=O)cc3)CC2)cc1`, the inhibition in experiment [1] stood at 54%. In the case of `Cc1cc(C2CCN(C(=O)NC3CCCCC3)CC2)n(-c2ccc(S(N)(=O)=O)cc2)n1`, the IC50 in experiment [2] came to 0.275 µM. The inhibition in experiment [1] came to 99%. As for `Cc1cc(C2CCN(C(=O)Nc3ccc(Cl)cc3)CC2)n(-c2ccc(S(C)(=O)=O)cc2)n1`, the inhibition in experiment [1] is 54%.

With `Cc1cc(C2CCN(C(=O)NC3CCCCC3)CC2)n(-c2ccc(S(C)(=O)=O)cc2)n1`, the IC50 in experiment [2] turned out to be 3.47 µM. The inhibition in experiment [1] was 114%. As to `Cc1cc(C2CCN(C(=O)Nc3ccccc3Cl)CC2)n(-c2ccc(S(N)(=O)=O)cc2)n1`, the inhibition in experiment [1] stood at 54%. Regarding `CCc1ccccc1NC(=O)N1CCC(c2cc(C)nn2-c2ccc(S(C)(=O)=O)cc2)CC1`, the inhibition in experiment [1] is 54%. `Cc1ccc(NC(=O)N2CCC(c3cc(C)nn3-c3ccc(S(N)(=O)=O)cc3)CC2)cc1`: in experiment [2], the IC50 was 0.224 µM. For the same molecule, the inhibition in experiment [1] turned out to be 105%. On to `Cc1cc(C2CCN(C(=O)c3ccccc3)CC2)n(-c2ccc(S(N)(=O)=O)cc2)n1`, for which the inhibition in experiment [1] was found to be 57.2%. On to `Cc1cc(C2CCN(C(=O)Nc3ccccc3)CC2)n(-c2ccc(S(C)(=O)=O)cc2)n1`, for which, in experiment [2], the half-maximal inhibitory concentration (IC50) turned out to be 0.22 µM. Further, the inhibition in experiment [1] came out at 89.9%. With `Cc1cc(C2CCN(C(=O)c3ccc([N+](=O)[O-])cc3)CC2)n(-c2ccc(S(N)(=O)=O)cc2)n1`, the inhibition in experiment [1] came out at 0%.

Take `COc1ccc(C(=O)N2CCC(c3cc(C)nn3-c3ccc(S(C)(=O)=O)cc3)CC2)cc1`: the inhibition in experiment [1] was 15.2%. Take `Cc1cc(C2CCN(C(=O)c3ccccc3)CC2)n(-c2ccc(S(C)(=O)=O)cc2)n1`: the inhibition in experiment [1] is 54%. In the case of `Cc1ccc(C(=O)N2CCC(c3cc(C)nn3-c3ccc(S(N)(=O)=O)cc3)CC2)cc1`, the inhibition in experiment [1] worked out at 0%. Regarding `CCCCNC(=O)N1CCC(c2cc(C)nn2-c2ccc(S(C)(=O)=O)cc2)CC1`, in experiment [2], the IC50 is 0.269 µM. In experiment [1], the inhibition turned out to be 99.5%. Turning to `Cc1cc(C2CCN(C(=O)NCc3ccccc3)CC2)n(-c2ccc(S(N)(=O)=O)cc2)n1`, in experiment [1], the inhibition came to 69.2%. As to `COc1ccc(C(=O)N2CCC(c3cc(C)nn3-c3ccc(S(N)(=O)=O)cc3)CC2)cc1`, in experiment [1], the inhibition came to 32.9%. As to `CCCCNC(=O)N1CCC(c2cc(C)nn2-c2ccc(S(N)(=O)=O)cc2)CC1`, in experiment [2], the IC50 came to 10.1 µM. Also, the inhibition in experiment [1] stood at 82%. For the molecule `Cc1cc(C2CCN(C(=O)c3ccc(Cl)cc3)CC2)n(-c2ccc(S(C)(=O)=O)cc2)n1`, in experiment [1], the inhibition came to 54%. Still for that read-out and setting: then `CCCNC(=O)N1CCC(c2cc(C)nn2-c2ccc(S(N)(=O)=O)cc2)CC1`, with 68.6%; and `Cc1ccc(C(=O)N2CCC(c3cc(C)nn3-c3ccc(S(C)(=O)=O)cc3)CC2)cc1`, with 42.1%; and `CCCC(=O)N1CCC(c2cc(C)nn2-c2ccc(S(N)(=O)=O)cc2)CC1`, with 68.7%. On the same count and under the same terms, the result for `Cc1cc(C2CCN(C(=O)Nc3ccccc3Cl)CC2)n(-c2ccc(S(C)(=O)=O)cc2)n1` reads 54%.

For `Cc1cc(C2CCN(C(=O)Nc3ccccc3)CC2)n(-c2ccc(S(N)(=O)=O)cc2)n1`, the IC50 in experiment [2] was 16.7 µM. Also, the inhibition in experiment [1] stood at 92.7%. With `Cc1cc(C2CCN(C(=O)c3ccc(Cl)cc3)CC2)n(-c2ccc(S(N)(=O)=O)cc2)n1`, the inhibition in experiment [1] was found to be 32.5%.
